Reference: ChEMBL document CHEMBL1201862, “PubChem BioAssay data set” (2004)
Active and inactive are the calls of the source. For most assays here, no stated cut-off is given here; in the data, actives have a measured IC50 and inactives only a lower limit.

Key:
[1] = NIH-3T3 fibroblast cytotoxicity, dose response, cytotoxicity control, cell-based, fluorescence, Alamar Blue, secondary assay (AID 2327); assay type: functional;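 further: NIH-3T3 mouse fibroblasts cultured with fluconazole at 8 µg/mL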
[2] = molecular target: T1, SUMO-activating enzyme (Homo sapiens, UniProt Q9UBT2); experiment: blockers of UBC9-mediated SUMO conjugation – biochemical, AlphaScreen, SUMOylation inhibitor project, confirmation (AID 2018); assay type: functional
[3] = fluconazole-exposed Candida albicans growth modulators – fluorescence, retest, confirmation (AID 2467); assay type: functional, cell-based
[4] = molecular target: T1, SUMO-activating enzyme; experiment: blockers of SAE1/SAE2–UBC9 SUMO transfer – biochemical, HTRF, uHTS, primary screen (AID 2006); assay type: protein-complex assay
[5] = molecular target: T2, Caspase-3 (Homo sapiens, UniProt P42574); assay type: functional;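 further: Dose-response selectivity test against caspase-3 for candidate inhibitors of sentrin-specific proteases (SENPs)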
T2 sequence (P42574 whole entry): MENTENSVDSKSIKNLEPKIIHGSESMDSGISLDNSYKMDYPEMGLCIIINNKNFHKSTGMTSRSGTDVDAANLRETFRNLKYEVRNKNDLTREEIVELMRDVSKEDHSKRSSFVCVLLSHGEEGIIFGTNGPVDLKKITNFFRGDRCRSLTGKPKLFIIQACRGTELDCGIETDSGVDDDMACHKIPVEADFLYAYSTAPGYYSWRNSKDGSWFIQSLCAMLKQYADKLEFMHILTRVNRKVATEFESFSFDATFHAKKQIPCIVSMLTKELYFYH

[6] = molecular target: T3, Sentrin-specific protease 7 (Homo sapiens, UniProt Q9BQF6); assay type: functional;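 further: Luminescence-based dose-response confirmation of ultra-high-throughput screening hits, measuring inhibition of SENP7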
T3 sequence (Q9BQF6 whole entry): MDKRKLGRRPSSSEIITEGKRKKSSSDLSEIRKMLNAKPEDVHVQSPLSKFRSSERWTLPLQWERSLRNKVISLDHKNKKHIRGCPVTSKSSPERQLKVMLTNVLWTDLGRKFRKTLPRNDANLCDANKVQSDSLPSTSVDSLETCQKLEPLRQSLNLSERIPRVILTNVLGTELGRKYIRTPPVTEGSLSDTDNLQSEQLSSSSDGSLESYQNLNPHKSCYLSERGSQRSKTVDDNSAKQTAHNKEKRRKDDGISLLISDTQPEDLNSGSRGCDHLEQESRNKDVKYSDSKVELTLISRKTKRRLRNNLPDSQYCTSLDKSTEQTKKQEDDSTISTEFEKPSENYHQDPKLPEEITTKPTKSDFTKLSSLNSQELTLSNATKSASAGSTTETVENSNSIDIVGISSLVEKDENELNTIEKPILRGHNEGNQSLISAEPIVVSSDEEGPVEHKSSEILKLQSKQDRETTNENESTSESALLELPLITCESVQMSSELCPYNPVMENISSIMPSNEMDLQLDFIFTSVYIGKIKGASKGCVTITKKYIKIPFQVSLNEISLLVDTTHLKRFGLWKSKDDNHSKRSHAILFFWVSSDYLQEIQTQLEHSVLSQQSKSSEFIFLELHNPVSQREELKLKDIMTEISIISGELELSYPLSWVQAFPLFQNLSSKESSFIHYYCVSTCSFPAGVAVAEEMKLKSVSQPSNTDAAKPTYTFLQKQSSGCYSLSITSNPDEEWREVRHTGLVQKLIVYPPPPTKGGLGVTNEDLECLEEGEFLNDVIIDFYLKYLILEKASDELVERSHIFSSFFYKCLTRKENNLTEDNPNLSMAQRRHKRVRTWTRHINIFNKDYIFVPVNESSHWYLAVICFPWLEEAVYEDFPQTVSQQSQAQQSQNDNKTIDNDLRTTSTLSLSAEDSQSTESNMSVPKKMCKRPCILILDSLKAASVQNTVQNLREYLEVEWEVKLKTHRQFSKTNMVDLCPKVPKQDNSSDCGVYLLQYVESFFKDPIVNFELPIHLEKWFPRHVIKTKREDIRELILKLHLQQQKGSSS

[7] = molecular target: T4, Sentrin-specific protease 6 (Homo sapiens, UniProt Q9GZR1); assay type: functional;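 further: Luminescence-based dose-response confirmatory assay of SENP6 inhibition, following up an ultra-high-throughput screen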
T4 sequence (Q9GZR1 whole entry): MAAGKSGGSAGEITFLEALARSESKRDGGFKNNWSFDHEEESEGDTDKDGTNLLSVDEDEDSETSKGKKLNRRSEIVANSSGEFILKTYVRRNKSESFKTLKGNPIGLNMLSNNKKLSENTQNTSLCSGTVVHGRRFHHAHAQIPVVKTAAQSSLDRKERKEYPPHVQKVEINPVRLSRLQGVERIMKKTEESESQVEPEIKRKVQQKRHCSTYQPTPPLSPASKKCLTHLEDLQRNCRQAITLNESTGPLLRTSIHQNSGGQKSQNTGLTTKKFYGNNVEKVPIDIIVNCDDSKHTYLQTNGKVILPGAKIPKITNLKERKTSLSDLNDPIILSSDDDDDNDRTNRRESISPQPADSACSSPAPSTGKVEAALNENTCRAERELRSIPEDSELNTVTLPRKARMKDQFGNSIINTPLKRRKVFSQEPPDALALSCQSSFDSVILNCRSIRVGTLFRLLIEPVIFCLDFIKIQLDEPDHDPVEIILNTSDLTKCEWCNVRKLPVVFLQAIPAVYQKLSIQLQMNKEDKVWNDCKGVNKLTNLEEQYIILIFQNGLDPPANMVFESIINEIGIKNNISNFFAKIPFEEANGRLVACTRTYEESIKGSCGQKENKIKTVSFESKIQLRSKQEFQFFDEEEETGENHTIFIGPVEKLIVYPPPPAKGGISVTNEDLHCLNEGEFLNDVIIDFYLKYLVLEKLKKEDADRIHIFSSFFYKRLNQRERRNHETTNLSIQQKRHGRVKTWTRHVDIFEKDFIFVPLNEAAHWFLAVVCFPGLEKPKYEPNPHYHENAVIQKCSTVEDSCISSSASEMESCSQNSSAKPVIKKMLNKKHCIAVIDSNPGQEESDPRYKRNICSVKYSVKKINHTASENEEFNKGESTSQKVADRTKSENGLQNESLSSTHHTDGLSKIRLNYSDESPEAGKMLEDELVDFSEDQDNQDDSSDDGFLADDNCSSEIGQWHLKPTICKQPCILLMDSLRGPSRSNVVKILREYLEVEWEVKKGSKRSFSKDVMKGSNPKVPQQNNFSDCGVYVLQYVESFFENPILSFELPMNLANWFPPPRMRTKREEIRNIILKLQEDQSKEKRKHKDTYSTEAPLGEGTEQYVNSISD

[8] = molecular target: T5, Sentrin-specific protease 8 (Homo sapiens, UniProt Q96LD8); assay type: functional;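 further: luminescence read-out of SENP8 inhibition, dose-response confirmation following an ultra-high-throughput screen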
T5 sequence (Q96LD8 whole entry): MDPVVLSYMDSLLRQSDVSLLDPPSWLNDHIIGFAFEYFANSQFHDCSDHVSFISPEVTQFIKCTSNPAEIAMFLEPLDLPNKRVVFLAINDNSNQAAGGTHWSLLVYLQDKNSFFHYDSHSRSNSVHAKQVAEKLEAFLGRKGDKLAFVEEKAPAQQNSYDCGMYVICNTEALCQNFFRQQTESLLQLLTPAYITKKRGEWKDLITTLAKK

[9] = tested on: INS1; experiment: INS-1E survival protection against cytokine death – cell-based, luminescence, retest, dose response (AID 449756); assay type: functional; conditions: Rattus norvegicus;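 further: cell death triggered by IL-1 beta plus TNF-alpha plus IFN-gamma mixture; protective hits raise ATP signal compared with cytokine alone wells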
[10] = molecular target: T6, Long-chain-fatty-acid--AMP ligase FadD28 (Mycobacterium tuberculosis, UniProt P9WQ59); experiment: Fluorescence polarization aasay to screen for inhibitors that compete for the binding of FadD28 to a bisubstrate Measured in Biochemical System Using Plate Reader - 2147-01_Inhibitor_Dose_CherryPick_Activity.; assay type: functional, Mycobacterium tuberculosis H37Rv
T6 sequence (P9WQ59 whole entry): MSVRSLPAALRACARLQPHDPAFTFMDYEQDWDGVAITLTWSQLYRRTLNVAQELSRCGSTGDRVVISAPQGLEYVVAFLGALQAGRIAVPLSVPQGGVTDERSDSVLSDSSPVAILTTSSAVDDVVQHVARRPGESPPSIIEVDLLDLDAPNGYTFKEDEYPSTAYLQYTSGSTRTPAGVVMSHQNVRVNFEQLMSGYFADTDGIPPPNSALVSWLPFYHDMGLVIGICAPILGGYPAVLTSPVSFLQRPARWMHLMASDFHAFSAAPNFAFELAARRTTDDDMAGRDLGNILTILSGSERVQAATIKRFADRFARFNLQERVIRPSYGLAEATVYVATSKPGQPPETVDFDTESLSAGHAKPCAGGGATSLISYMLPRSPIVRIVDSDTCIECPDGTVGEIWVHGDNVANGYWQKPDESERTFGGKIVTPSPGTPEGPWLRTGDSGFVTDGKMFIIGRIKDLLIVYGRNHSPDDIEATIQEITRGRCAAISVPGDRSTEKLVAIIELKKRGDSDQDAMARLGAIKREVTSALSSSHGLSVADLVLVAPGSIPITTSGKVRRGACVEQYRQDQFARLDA

[11] = molecular target: Albumin (Bos taurus, UniProt P02769); experiment: Counterscreen for inhibitors of T-cell receptor (TCR)-CD3 interaction: Fluorescence-based biochemical high throughput dose response assay to identify inhibitors of T-cell receptor (TCR)-CD3 interaction using a TAMRA-labeled BSA probe.; assay type: functional
Sequence of Albumin (P02769 whole entry): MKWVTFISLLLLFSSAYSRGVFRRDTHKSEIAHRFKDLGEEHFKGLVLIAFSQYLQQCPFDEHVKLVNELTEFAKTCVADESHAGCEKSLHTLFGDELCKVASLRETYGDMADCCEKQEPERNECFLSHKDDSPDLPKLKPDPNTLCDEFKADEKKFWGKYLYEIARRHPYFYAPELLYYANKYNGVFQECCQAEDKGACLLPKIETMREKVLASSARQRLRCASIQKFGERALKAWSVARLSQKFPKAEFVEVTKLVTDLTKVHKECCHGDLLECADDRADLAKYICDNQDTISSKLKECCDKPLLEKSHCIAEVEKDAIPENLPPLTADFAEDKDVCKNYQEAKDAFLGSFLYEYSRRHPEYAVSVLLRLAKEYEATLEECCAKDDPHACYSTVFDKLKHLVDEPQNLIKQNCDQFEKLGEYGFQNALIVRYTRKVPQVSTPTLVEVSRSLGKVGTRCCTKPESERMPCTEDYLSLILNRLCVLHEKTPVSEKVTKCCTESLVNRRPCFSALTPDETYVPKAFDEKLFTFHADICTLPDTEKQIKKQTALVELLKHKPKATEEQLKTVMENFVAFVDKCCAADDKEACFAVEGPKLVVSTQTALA

T1 sequence (Q9UBE0 whole entry): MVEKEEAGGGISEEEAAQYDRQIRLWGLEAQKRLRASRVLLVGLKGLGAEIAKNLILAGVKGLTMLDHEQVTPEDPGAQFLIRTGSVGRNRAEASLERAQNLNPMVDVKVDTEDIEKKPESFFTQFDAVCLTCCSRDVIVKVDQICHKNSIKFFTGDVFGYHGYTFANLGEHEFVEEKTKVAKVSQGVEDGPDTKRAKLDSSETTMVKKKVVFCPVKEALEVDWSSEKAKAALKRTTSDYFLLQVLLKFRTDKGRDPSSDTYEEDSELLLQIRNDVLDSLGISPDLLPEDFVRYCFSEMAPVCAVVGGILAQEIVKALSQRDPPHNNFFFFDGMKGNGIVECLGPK
T1 sequence (Q9UBT2 whole entry): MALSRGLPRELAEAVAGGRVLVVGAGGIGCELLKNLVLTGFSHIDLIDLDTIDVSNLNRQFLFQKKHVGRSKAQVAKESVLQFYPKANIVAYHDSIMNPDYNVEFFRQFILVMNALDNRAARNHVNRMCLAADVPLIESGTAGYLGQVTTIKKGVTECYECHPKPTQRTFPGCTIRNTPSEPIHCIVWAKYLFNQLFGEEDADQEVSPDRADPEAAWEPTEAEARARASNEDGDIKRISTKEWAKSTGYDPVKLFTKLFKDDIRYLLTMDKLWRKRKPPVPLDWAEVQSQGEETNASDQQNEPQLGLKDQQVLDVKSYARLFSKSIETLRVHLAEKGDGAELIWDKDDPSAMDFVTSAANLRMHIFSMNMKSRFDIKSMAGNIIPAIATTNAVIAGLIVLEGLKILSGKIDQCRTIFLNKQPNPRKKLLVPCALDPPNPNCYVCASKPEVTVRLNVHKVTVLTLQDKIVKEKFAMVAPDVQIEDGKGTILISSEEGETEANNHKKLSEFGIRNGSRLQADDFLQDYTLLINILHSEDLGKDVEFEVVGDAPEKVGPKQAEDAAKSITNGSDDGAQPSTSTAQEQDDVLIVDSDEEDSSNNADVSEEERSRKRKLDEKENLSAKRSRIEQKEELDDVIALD

**Q.** What does the source list for `O=[N+]([O-])c1ccc(O)c(/C=N/NC(=S)Nc2ccc(Cl)cc2Cl)c1`?
**A.** EC50 [1]: > 160 µM (inactive); IC50 [2]: 1.41 µM (active); EC50 [3]: 3.32 µM (active); IC50 [4]: 23.1 µM (active); IC50 [5]: 28.3 µM (active); IC50 [6]: 3.08 µM (active); IC50 [7]: 3.15 µM (active); IC50 [8]: 7.38 µM (active); AC50 [9]: 1.72 µM (active); AC50 [10]: > 100 µM (inactive); IC50 [11]: > 94.1 µM (inactive)
